Measurements taken from ChEMBL document CHEMBL1133038, “New quinolinic derivatives as centrally active antioxidants” (Bioorg Med Chem Lett, 2000).

Assays:
Mus musculus [1] = test: Body temperature of NMRI mice after 30 minutes of intraperitoneal administration of 150 mg/kg compound.; assay type: functional
[2] = Safety ratio of MTC to that of PC50; Not relevant; assay type: toxicity
HT-22 [3] = test: The concentration producing 50% protection against L-HCA-mediated neurotoxicity in HT-22 hippocampal cell line.; assay type: functional, Mus musculus
HT-22 [4] = test: The minimum tolerated concentration by MTT reduction assay in HT-22 hippocampal cell line.; assay type: functional, Mus musculus
Mus musculus [5] = test: The compound was tested for % survival of NMRI mice after 5 hours of intraperitoneal administration of 150 mg/kg of dose; 30/60; assay type: functional; details: ip
HT-22 [6] = test: The concentration producing 50% toxicity in HT-22 hippocampal cell line.; assay type: functional; details: Mus musculus, read-out: TC50 (the source's name)
Mus musculus [7] = test: Percent survival of NMRI mice after 5 hours of intraperitoneal administration of 150 mg/kg of compound.; assay type: functional; details: ip
HT-22 [8] = test: Safety ratio of MTC to that of PC50; assay type: functional, Mus musculus

## CC(C)(C)/[N+]([O-])=C/c1ccccc1
Mus musculus [1]
  change in body temperature: -2.1 °C
[2]
  Ratio: Not relevant
HT-22 [3]
  PC50: >200 µM
HT-22 [4]
  MTC: >200 µM
Mus musculus [5]
  survival at 150 mg/kg: 50%

## CCOc1ccc2c(c1)CCC1(CCCCC1)N2
Mus musculus [1]
  change in body temperature: -0.7 °C
HT-22 [6]
  CC50: 74.5 µM
Mus musculus [7]
  survival at 150 mg/kg: 60%
HT-22 [8]
  Ratio: 156
HT-22 [3]
  PC50: 0.16 µM
HT-22 [4]
  MTC: 25 µM

## O=c1c2ccccc2[se]n1-c1ccccc1 [EBSELEN]
Mus musculus [1]
  change in body temperature: -1.85 °C
HT-22 [6]
  CC50: 20 µM
Mus musculus [7]
  survival at 150 mg/kg: 20%
HT-22 [8]
  Ratio: 10
HT-22 [3]
  PC50: 1 µM
HT-22 [4]
  MTC: 10 µM

## CCOc1c(C)c(C)c2c(c1C)C=CC1(CCCCC1)N2
Mus musculus [1]
  change in body temperature: -0.8 °C
HT-22 [6]
  CC50: 17.8 µM
Mus musculus [7]
  survival at 150 mg/kg: 50%
HT-22 [8]
  Ratio: 59
HT-22 [3]
  PC50: 0.17 µM
HT-22 [4]
  MTC: 10 µM

## CCOc1c(C(C)C)cc2c(c1C(C)C)C=CC(C)(C)N2
Mus musculus [1]
  change in body temperature: -0.05 °C
HT-22 [6]
  CC50: 200 µM
Mus musculus [7]
  survival at 150 mg/kg: 50%
HT-22 [8]
  Ratio: 143
HT-22 [3]
  PC50: 0.07 µM
HT-22 [4]
  MTC: 10 µM

## CCOc1ccc2c(c1)C=CC(C)(C)N2
Mus musculus [1]
  change in body temperature: -1.7 °C
HT-22 [6]
  CC50: 56 µM
Mus musculus [7]
  survival at 150 mg/kg: 100%
HT-22 [8]
  Ratio: 132
HT-22 [3]
  PC50: 0.19 µM
HT-22 [4]
  MTC: 25 µM

## CCOc1ccc2c(c1)C(C)CC(C)(C)N2 (stereo not drawn)
HT-22 [6]
  CC50: 137 µM
HT-22 [8]
  Ratio: 58
HT-22 [3]
  PC50: 0.86 µM
HT-22 [4]
  MTC: 50 µM

## CCOc1c(C)cc2c(c1C)C=CC1(CCCCC1)N2
Mus musculus [1]
  change in body temperature: -0.3 °C
HT-22 [6]
  CC50: 19.3 µM
Mus musculus [7]
  survival at 150 mg/kg: 70%
HT-22 [8]
  Ratio: 333
HT-22 [3]
  PC50: 0.03 µM
HT-22 [4]
  MTC: 10 µM

## CCOc1cccc2c1NC(C)(C)C=C2
HT-22 [6]
  CC50: 200 µM
HT-22 [8]
  Ratio: 100
HT-22 [3]
  PC50: 1 µM
HT-22 [4]
  MTC: 100 µM

## CCOc1c(C(C)C)cc2c(c1C(C)C)CCC(C)(C)N2
Mus musculus [1]
  change in body temperature: -0.5 °C
HT-22 [6]
  CC50: 18.2 µM
Mus musculus [7]
  survival at 150 mg/kg: 40%
HT-22 [8]
  Ratio: 167
HT-22 [3]
  PC50: 0.06 µM
HT-22 [4]
  MTC: 10 µM

## CCOc1c(C)c(C)c2c(c1C)CCC(C)(C)N2
Mus musculus [1]
  change in body temperature: -0.2 °C
HT-22 [6]
  CC50: 128 µM
Mus musculus [7]
  survival at 150 mg/kg: 100%
HT-22 [8]
  Ratio: 250
HT-22 [3]
  PC50: 0.2 µM
HT-22 [4]
  MTC: 50 µM

## COc1ccc2c(c1)C=CC1(CCCCC1)N2
Mus musculus [1]
  change in body temperature: -1 °C
HT-22 [6]
  CC50: 46.9 µM
Mus musculus [7]
  survival at 150 mg/kg: 100%
HT-22 [8]
  Ratio: 10
HT-22 [3]
  PC50: 0.49 µM
HT-22 [4]
  MTC: 5 µM

## CC1=NN(c2ccccc2)C(=O)C1 [EDARAVONE]
Mus musculus [1]
  change in body temperature: -2.4 °C
HT-22 [6]
  CC50: > 200 µM
Mus musculus [7]
  survival at 150 mg/kg: 80%
HT-22 [8]
  Ratio: 2.8
HT-22 [3]
  PC50: 70.4 µM
HT-22 [4]
  MTC: 200 µM

## CCOc1c(C)c(C)c2c(c1C)CCC1(CCCCC1)N2
Mus musculus [1]
  change in body temperature: -0.8 °C
HT-22 [6]
  CC50: 17.2 µM
Mus musculus [7]
  survival at 150 mg/kg: 60%
HT-22 [8]
  Ratio: 67
HT-22 [3]
  PC50: 0.15 µM
HT-22 [4]
  MTC: 10 µM

## CCOc1c(C)cc2c(c1C)C=CC(C)(C)N2
Mus musculus [1]
  change in body temperature: -0.9 °C
HT-22 [6]
  CC50: 182 µM
Mus musculus [7]
  survival at 150 mg/kg: 100%
HT-22 [8]
  Ratio: 143
HT-22 [3]
  PC50: 0.35 µM
HT-22 [4]
  MTC: 50 µM

## CCOc1ccc2c(c1)C=CC1(CCN(CC3CC3)CC1)N2
HT-22 [6]
  CC50: 200 µM
HT-22 [8]
  Ratio: 260
HT-22 [3]
  PC50: 0.77 µM
HT-22 [4]
  MTC: 200 µM

## CCOc1ccc2c(c1)C=CC1(CCCCC1)N2
Mus musculus [1]
  change in body temperature: -0.2 °C
HT-22 [6]
  CC50: 17.1 µM
Mus musculus [7]
  survival at 150 mg/kg: 80%
HT-22 [8]
  Ratio: 28
HT-22 [3]
  PC50: 0.18 µM
HT-22 [4]
  MTC: 5 µM

## CCOc1c(C)c(C)c2c(c1C)C=CC(C)(C)N2
Mus musculus [1]
  change in body temperature: -2.5 °C
HT-22 [6]
  CC50: 123 µM
Mus musculus [7]
  survival at 150 mg/kg: 70%
HT-22 [8]
  Ratio: 109
HT-22 [3]
  PC50: 0.46 µM
HT-22 [4]
  MTC: 50 µM

## CCOc1c(C(C)(C)C)cc2c(c1C(C)(C)C)C=CC(C)(C)N2
Mus musculus [1]
  change in body temperature: -1 °C
HT-22 [6]
  CC50: 36.5 µM
Mus musculus [7]
  survival at 150 mg/kg: 60%
HT-22 [8]
  Ratio: 250
HT-22 [3]
  PC50: 0.1 µM
HT-22 [4]
  MTC: 25 µM

## C1=CC2(CCCCC2)Nc2ccc(Oc3ccccc3)cc21
HT-22 [6]
  CC50: 11.2 µM
HT-22 [8]
  Ratio: 2.1
HT-22 [3]
  PC50: 4.75 µM
HT-22 [4]
  MTC: 10 µM

## CCOc1ccc2c(c1)C=CC1(CCNCC1)N2
HT-22 [6]
  CC50: 139 µM
HT-22 [8]
  Ratio: 20
HT-22 [3]
  PC50: 0.51 µM
HT-22 [4]
  MTC: 10 µM

## CCOc1cccc2c1NC1(C=C2)CCCCC1
Mus musculus [1]
  change in body temperature: -1 °C
HT-22 [6]
  CC50: 17.9 µM
Mus musculus [7]
  survival at 150 mg/kg: 60%
HT-22 [8]
  Ratio: 27
HT-22 [3]
  PC50: 0.37 µM
HT-22 [4]
  MTC: 10 µM

## CC(C)(C)C(=O)Oc1ccc2c(c1)C=CC1(CCCCC1)N2
Mus musculus [1]
  change in body temperature: -2.8 °C
HT-22 [6]
  CC50: 1.61 µM
Mus musculus [7]
  survival at 150 mg/kg: 30%
HT-22 [8]
  Ratio: 1.4
HT-22 [3]
  PC50: 0.73 µM
HT-22 [4]
  MTC: 1 µM

## CCOc1c(C)cc2c(c1C)CCC(C)(C)N2
Mus musculus [1]
  change in body temperature: -0.5 °C
HT-22 [6]
  CC50: 186 µM
Mus musculus [7]
  survival at 150 mg/kg: 80%
HT-22 [8]
  Ratio: 625
HT-22 [3]
  PC50: 0.16 µM
HT-22 [4]
  MTC: 100 µM

## CCOc1ccc2c(c1)C(C)=CC(C)(C)N2 [E324]
Mus musculus [1]
  change in body temperature: -1.85 °C
HT-22 [6]
  CC50: 103 µM
Mus musculus [7]
  survival at 150 mg/kg: 80%
HT-22 [8]
  Ratio: 122
HT-22 [3]
  PC50: 0.41 µM
HT-22 [4]
  MTC: 50 µM

## VITAMIN E
HT-22 [8]; Mus musculus
  Ratio: > 250
HT-22 [3]; Mus musculus
  PC50: 0.8 µM
HT-22 [4]; Mus musculus
  MTC: > 200 µM

## CCOc1c(C)cc2c(c1C)CCC1(CCCCC1)N2
Mus musculus [1]
  change in body temperature: -2.2 °C
HT-22 [6]
  CC50: 17.6 µM
Mus musculus [7]
  survival at 150 mg/kg: 80%
HT-22 [8]
  Ratio: 1000
HT-22 [3]
  PC50: 0.01 µM
HT-22 [4]
  MTC: 10 µM

## CCOc1c(C(C)C)cc2c(c1C(C)C)C=CC1(CCCCC1)N2
HT-22 [6]
  CC50: 16.9 µM
HT-22 [8]
  Ratio: 83
HT-22 [3]
  PC50: 0.12 µM
HT-22 [4]
  MTC: 10 µM

## CC(C)(C)Oc1ccc2c(c1)C=CC1(CCCCC1)N2
Mus musculus [1]
  change in body temperature: -0.2 °C
HT-22 [6]
  CC50: 13.2 µM
Mus musculus [7]
  survival at 150 mg/kg: 30%
HT-22 [8]
  Ratio: 77
HT-22 [3]
  PC50: 0.13 µM
HT-22 [4]
  MTC: 10 µM
